{"source": "paper PMC7044433", "about": "“Combining DNMT and HDAC6 inhibitors increases anti-tumor immune signaling and decreases tumor burden in ovarian cancer” (Scientific Reports, 2020)", "key": {"SKOV3 CR [1]": {"tested_on": "SKOV3 CR", "parameters": "method as in PMID 29662190", "conditions": "read-out: cisplatin IC50; cited from earlier work"}, "IGROV-1 CR": {"tested_on": "IGROV-1 CR", "parameters": "method as in PMID 29662190", "conditions": "read-out: cisplatin IC50; cited from earlier work"}, "HDAC activity": {"tested_on": "HDAC activity", "test": "HDAC-Glo assay, percent inhibition of HDAC activity in ovarian cancer cell lines", "type": "cell-based, human", "method": "HDACi enzymatic function was measured using HDACglo class I/IIa Assay (Promega, G6420). Cells were seeded in a 96-well dish and treated with 500 nM 5-azacytidine and varying levels of HDACi to determine appropriate HDACi dosage. Assay measurements were collected using SpectraMax i3x multi-mode microplate reader (Molecular Devices, USA) at the recommended wavelength. […], Givinostat, and Panobinostat (SelleckChem) were used to compare enzymatic inhibition levels of Nexturastat in each cell line. Results were analyzed according to manufacturer recommendations."}, "[2]": {"tested_on": "ARID1A mutated ovarian clear cell carcinoma", "conditions": "mice with ARID1A mutated ovarian clear cell carcinoma; cited from earlier work"}, "DNMT1 protein": {"tested_on": "DNMT1 protein", "test": "DNMT1 immunoblot in ovarian cancer cell lines", "type": "cell-based, human", "conditions": "Day 7", "method": "(§1) Cells were cultured in T75 dishes (Greiner, 658170) to form a monolayer at 80% confluency. Combination cells were treated with 500 nM 5-azacytidine (Sigma-Aldrich) once a day for 3 days or PBS once a day for 3 days. Cells were passaged on the fourth day and split into 2 flasks to be treated with Nexturastat (StarWise, LLC) or DMSO for vehicle control at the desired dose based on the cell line for the following 3 days. On the first day of Nexturastat treatment, one flask from each treatment group was stimulated with 250 ng/mL IFNγ (Peprotech, 300-02). For isogeneic ID8 murine cell lines, on the first day of HDACi treatment cell were treated with 250 ng/mL IFNγ (Peprotech, 315-05). On the seventh day, cell pellets were collected for Western Blot or flow cytometry analysis. For cycloheximide experiments, cells were treated on the seventh day of the experiment for 0, 4 or 8 hours with 10 μM cycloheximide (Sigma, C4859).\n(§2) Isolated cell pellets were lysed in RIPA buffer (Pierce, 89900) with 1X protease and phosphatase inhibitor (Pierce, A32961). […] Protein concentration was determined using a Pierce BCA Protein Assay Kit (Thermo Fisher Scientific, 23225) according to the manufacturer’s protocol. […] Bands were detected using Azure Biosystems (Dublin, California, USA) Imaging System c600. […]"}, "MOSE ID8 Trp53−/−": {"tested_on": "MOSE ID8 Trp53−/−", "test": "qRT-PCR of interferon stimulated genes and cytokines", "type": "cell-based, mouse", "conditions": "Day 7, 500 nM Aza then NextA, fold change relative to Mock", "method": "(§3) Cells were cultured in T75 dishes to form a monolayer at 80% confluency. Combination cells were treated with 500 nM 5-azacytidine or PBS for 3 days. Cells were passaged on the fourth day and split into 2 flasks to be treated with Nexturastat or vehicle at the desired dose based on the cell line for the following 3 days. On the last day of HDACi treatment, one flask from each treatment group was stimulated with 250 ng/mL IFNγ (Peprotech, 300-02) for 4 hours. For isogeneic ID8 murine cell lines, cell were stimulated with 250 ng/mL […] (Peprotech, 315-05) for 4 hours. On the seventh day cell pellets were collected for qPCR analysis.\nTotal RNA was extracted using the TRIzol method (Life Technologies). RNA concentration was determined using the Thermo Scientific NanoDrop One machine and software (Thermo Scientific, 840274100PR2). […] All RT-qPCRs were run on the Applied Biosystems Quantstudio3 Real-Time PCR System, 96-well plate reader (Applied Biosystems, A28137) and using TaqMan assay Gene Expression Array (Thermo Fisher Scientific, 4331182) in human for OASL, IFI44L, IFNb1, CXCL10, CCL2, CCL5, IFI27, CD247, DNMT1, DNMT3a, DNMT3b and in mouse (Thermo Fisher Scientific, 4331182) for OASL, IFI44L, IFNb1, CXCL10, CCL2, CCL5, IFI27, and CD247. […]"}, "[3]": {"tested_on": "tumor microenvironment immune cells", "test": "Immunophenotyping of ascites in ID8 Trp53−/− mouse model", "type": "in vivo", "conditions": "first experiment, Week 7", "method": "Ascites and murine spleens were collected from 5 to 10 mice per group and incubated in ACK buffer (Thermo Fisher Scientific) to lyse red blood cells for 10 min and then washed. Ascites from each mouse were individually prepared for flow cytometry. The single cells collected were cultured for 4 hours in RPMI with 10% FBS and in the presence of 2 ul/ml Cell Stimulation Cocktail plus protein transport inhibitors (eBioscience, 00497503). Cells were then washed and stained for the T cell panel including: Live/Dead (Thermo Fisher Scientific, L34965), CD45 (Biolegend, 103132), CD3 (Biolegend, 152316), CD4 (Biolegend, 100453), CD8 (Biolegend, 100766), NK1.1 (Biolegend, 108753) CD 279 (Biolegend, 135205). After incubation, the cells were permeabilized (FoxP3 staining buffers; BD Bioscience, 563486). Intracellular staining was performed for FoxP3 (Biolegend, 505806) and IFN-γ (BD Bioscience, 563486).\n(§4) All cells were fixed after staining using Foxp3/Transcription Factor Staining Buffer Set (eBioscience, 00-5523-00) and run on a 3-laser, 12-color BD Celesta analyzer."}, "[4]": {"tested_on": "ID8 Trp53−/− ovarian cancer", "test": "ID8 Trp53−/− mouse model of ovarian cancer, survival and tumor burden", "conditions": "first experiment; for survival: i.p. Aza 0.5 mg/kg, NextA 25 mg/kg, 5 days a week, combination on alternating weeks, vs Mock", "procedure": "For in vivo tumor studies, all mice were given intraperitoneal injections with 5.0 ×10^6 p53−/− isogeneic murine ovarian cancer cells suspended in 500 uL 1x phosphate buffered saline (PBS) (Corning 21-040-CV). Treatment began 1 week after tumor inoculation and ended when the tumor burden was deemed excessive for the animal. Mice were injected with 5-azacytidine and Nexturastat 5 days a week in alternating treatment (see treatment schemas in Figs. 5 and 6). All mice were given intraperitoneal injections of epigenetic drugs or their appropriate controls. Mice in the 5-azacytidine group were given 0.5 mg/kg of 5-azacytidine dissolved in 100 ul of PBS solution daily. Mice in the NexturastatA group were given 25 mg/kg of Nexturastat A dissolved in 100 ul PEG vehicle solution(70% Polyethylene glycol, 10% Tween80, 20% absolute ethanol) daily. Mice in the NextA+Aza group were given 5-azacytidine and NexturastatA on an alternating weekly basis. Mice in the control group were given a drug vehicle comprised of 70% Polyethylene glycol (Sigma 764752), 10% Tween 80 (Sigma P5188), and 20% 200 proof absolute ethanol as per the manufacturer guidelines as a vehicle control for Nexturastat or PBS as a vehicle control for 5-azacytidine.\nTumor burden was assessed via measurement of body weight, amount of ascites drained from the mice at the point where they had gained 20 to 30% of their body weight, or abdominal circumference measurements."}, "SKOV3 CR [5]": {"tested_on": "SKOV3 CR", "test": "qRT-PCR of interferon stimulated genes and cytokines", "type": "cell-based, human", "conditions": "Day 7", "method": "as §3\n(§5) Total RNA was extracted using the TRIzol method (Life Technologies). RNA concentration was determined using the Thermo Scientific NanoDrop One machine and software (Thermo Scientific, 840274100PR2). One microgram total RNA was DNAse I (Thermo Scientific) treated and used to generate cDNA with the Applied Biosystems High-Capacity cDNA Reverse Transcriptase Kit (Applied Biosystems, 4368814). All RT-qPCRs were run on the Applied Biosystems Quantstudio3 Real-Time PCR System, 96-well plate reader (Applied Biosystems, A28137) and using TaqMan assay Gene Expression Array (Thermo Fisher Scientific, 4331182) in human for OASL, IFI44L, IFNb1, CXCL10, CCL2, CCL5, IFI27, CD247, DNMT1, DNMT3a, DNMT3b and in mouse (Thermo Fisher Scientific, 4331182) for OASL, IFI44L, IFNb1, CXCL10, CCL2, CCL5, IFI27, and CD247. TBP was used as a housekeeping gene for both human and murine cell lines. The ΔΔCt method was used to calculate relative expression levels. Reverse transcriptase negative cDNA synthesis reaction was performed on at least one sample per 96-well plate along with a water control to ensure accurate results."}, "Hey": {"tested_on": "Hey", "test": "qRT-PCR of interferon stimulated genes and cytokines", "type": "cell-based, human", "conditions": "Day 7, 500 nM Aza then NextA, fold change relative to Mock", "method": "as §3, §5"}, "A2780": {"tested_on": "A2780", "test": "qRT-PCR of interferon stimulated genes and cytokines", "type": "cell-based, human", "conditions": "A2780, Day 7, 500 nM Aza then NextA, fold change relative to Mock", "method": "as §3, §5"}, "TykNu": {"tested_on": "TykNu", "test": "qRT-PCR of interferon stimulated genes and cytokines", "type": "cell-based, human", "conditions": "Day 7, seven genes", "method": "as §3, §5"}, "Kuramochi": {"tested_on": "Kuramochi", "test": "qRT-PCR of interferon stimulated genes and cytokines", "type": "cell-based, human", "conditions": "Day 7, seven genes", "method": "as §3, §5"}, "[6]": {"tested_on": "MHC class I, Hey human ovarian cancer cell line", "test": "MHC class I cell surface expression by flow cytometry", "type": "cell-based", "conditions": "Day 7, flow cytometry MFI", "method": "as §1\n(§6) Human ovarian cancer cells from day 7 of the protein protocol were stained for CD274 (eBioscience,12-5983-42) and MHC-I (eBioscience, 12-9983-42).\nas §4"}, "[7]": {"tested_on": "MHC class I, ID8 Trp53−/− mouse ovarian cancer cell line", "test": "MHC class I cell surface expression by flow cytometry", "type": "cell-based", "conditions": "Day 7, flow cytometry MFI", "method": "as §1\nMurine ovarian cancer cell lines from day 7 of the protein protocol were stained for PD-L1/CD274 (BD Bioscience, 558091), PD-L2/CD273 (Biolegend, 107214), MHC-I (Invitrogen, 17-5958-82), and MHC-II (Invitrogen 56-5321-82).\nas §4"}, "PD-L1": {"tested_on": "PD-L1", "test": "PD-L1 whole-cell protein immunoblot", "type": "cell-based, human", "conditions": "IGROV-1 CR and SKOV3 CR", "method": "as §1, §2"}, "[8]": {"tested_on": "ovarian cancer cell lines", "test": "CellTox Green cytotoxicity assay", "type": "cell-based, human", "conditions": "NextA dose chosen for each cell line, 5–10 uM", "method": "Drug toxicity levels were measured using the CellTox Assay (Promega, G8741). Cells were seeded into a 96-well dish and treated with 500 nm 5-azacytidine and varying levels of HDACi to determine suitable dosage. Cells were treated with fluorescent dye and incubated for 4 days measuring cell death according to the manufacturer’s protocol. For longer treatments, cells were seeded in a 96-well place and treated with 500 nm 5-azacytidine for 4 days and then varying levels of HDACi. Cells were treated with a fluorescent dye on the fourth day and incubated to measure cell death. Assay measurements were collected using SpectraMax i3x multi-mode microplate reader (Molecular Devices, USA) at the recommended wavelength. For our analysis, TritonX (Sigma, 9002-93-1) was used as the positive control compound to simulate cell death on all […] read days. Results were analyzed according to manufacture recommendations."}, "[9]": {"tested_on": "MHC I, IGROV-1 CR and SKOV3 CR", "test": "MHC I surface expression in cisplatin-resistant cell lines", "type": "cell-based, human", "conditions": "flow cytometry", "method": "as §1, §6, §4"}, "[10]": {"conditions": "low doses (250–500 nM), positive controls"}}}
{"compound": "N.N.[Cl][Pt][Cl]", "note": "[cisplatin]", "values": [{"measurement": "IC50", "setting": "SKOV3 CR [1]", "result": 10.4, "unit": "µM"}, {"measurement": "IC50", "setting": "IGROV-1 CR", "result": 1.5, "unit": "µM"}]}
{"compound": "CC(/C=C/C(=O)NO)=C\\[C@@H](C)C(=O)c1ccc(N(C)C)cc1", "note": "[TSA]", "values": [{"measurement": "inhibition of HDAC activity", "setting": "HDAC activity; [10]", "result": 100, "unit": "%"}]}
{"compound": "CCN(CC)Cc1ccc2cc(COC(=O)Nc3ccc(C(=O)NO)cc3)ccc2c1", "note": "[Givinostat]", "values": [{"measurement": "inhibition of HDAC activity", "setting": "HDAC activity; [10]", "result": 100, "unit": "%"}]}
{"compound": "O=C(CCCCCCNC(=O)c1cnc(N(c2ccccc2)c2ccccc2)nc1)NO", "note": "[ACY1215]", "values": [{"measurement": "survival", "setting": "[2]", "result": "improved survival"}]}
{"compound": "Cc1[nH]c2ccccc2c1CCNCc1ccc(/C=C/C(=O)NO)cc1", "note": "[LBH]", "values": [{"measurement": "inhibition of HDAC activity", "setting": "HDAC activity; [10]", "result": 100, "unit": "%"}]}
{"compound": "Nc1ncn([C@@H]2O[C@H](CO)[C@@H](O)[C@H]2O)c(=O)n1", "note": "[Aza, 5-azacytidine]", "values": [{"measurement": "DNMT1 protein expression", "setting": "DNMT1 protein", "result": "degrades the DNMT1 protein"}, {"measurement": "expression of cytokines and interferon genes", "setting": "MOSE ID8 Trp53−/−", "result": "significantly increased"}, {"measurement": "M1 macrophages in ascites", "setting": "[3]", "result": "increase in M1 macrophages"}, {"measurement": "ascites volume (tumor burden)", "setting": "[4]; Week 7", "result": "decreased ascites volume"}, {"measurement": "survival", "setting": "[4]", "result": "significantly increased survival"}, {"measurement": "expression of cytokines and interferon genes", "setting": "SKOV3 CR [5]", "result": "upregulated CCL2 and OASL genes"}, {"measurement": "expression of cytokines and interferon genes", "setting": "Hey", "result": "significantly increased"}, {"measurement": "expression of cytokines and interferon genes", "setting": "A2780", "result": "significantly increased"}, {"measurement": "expression of cytokines and interferon genes", "setting": "TykNu", "result": "significant increases"}, {"measurement": "expression of cytokines and interferon genes", "setting": "Kuramochi", "result": "some upregulation"}]}
{"compound": "CCCCN(Cc1ccc(C(=O)NO)cc1)C(=O)Nc1ccccc1", "note": "[NextA, Nexturastat A]", "values": [{"measurement": "MHC class I cell surface expression", "setting": "[6]", "result": "upregulated"}, {"measurement": "MHC class I cell surface expression", "setting": "[7]", "result": "upregulated"}, {"measurement": "total PD-L1 protein", "setting": "PD-L1", "result": "decrease of total PD-L1 protein"}, {"measurement": "expression of cytokines and interferon genes", "setting": "MOSE ID8 Trp53−/−", "result": "significantly increased"}, {"measurement": "activated NK cells in ascites", "setting": "[3]", "result": "favoring the presence of activated NK cells"}, {"measurement": "cell death", "setting": "[8]", "result": "no more than 20%"}, {"measurement": "inhibition of HDAC activity", "setting": "HDAC activity; 5 and 10 uM", "result": "60–80%"}, {"measurement": "survival", "setting": "[4]", "result": "did not"}, {"measurement": "MHC I expression", "setting": "[9]", "result": "increase in MHC I expression"}, {"measurement": "expression of cytokines and interferon genes", "setting": "SKOV3 CR [5]", "result": "upregulated CCL2 and OASL genes"}, {"measurement": "expression of cytokines and interferon genes", "setting": "Hey", "result": "significantly increased"}, {"measurement": "expression of cytokines and interferon genes", "setting": "A2780", "result": "significantly increased"}, {"measurement": "expression of cytokines and interferon genes", "setting": "Kuramochi", "result": "some upregulation"}]}
